Reference: PMC12649225, “Machine Learning-Identified Potent Antimicrobial Peptides Against Multidrug-Resistant Bacteria and Skin Infections” (Antibiotics, 2025)
Residues, ends and D or L forms follow the SMILES beside them.

What was measured:
[1] = system: A. baumannii RUH875; type: cell-based
Method: (§1) The bacterial strains used in this study included S. aureus JAR060131 [54] and the MDR ESKAPE pathogens Enterococcus faecium LUH15122, S. aureus LUH14616, Klebsiella pneumoniae LUH15104, A. baumannii RUH875 [55], Pseudomonas aeruginosa LUH15103, Enterobacter cloacae LUH15114, and the colistin-resistant Escherichia coli LUH15117. Before each experiment, bacteria from frozen stocks were cultured at 37 °C for 18–24 h on sheep blood agar plates (BioMérieux, Marcy-l’Étoile, France). All strains were then cultured from colonies either in tryptic soy broth (TSB; Oxoid, Basingstoke, UK) for A. baumannii, S. aureus, and E. faecium, or in brain heart infusion broth (BHI; Oxoid) for K. pneumoniae, P. aeruginosa, E. cloacae, and E. coli at 37 °C with shaking at 120 rpm for 18–24 h. Subsequently, bacteria were cultured to mid-logarithmic phase in the media described above at 37 °C with shaking at 120 rpm for 3 h. Bacteria were then washed twice with PBS and diluted to the required inoculum suspension concentration in Roswell Park Memorial Institute (RPMI)-1640 medium containing 20 mM HEPES and L-glutamine but without sodium bicarbonate (Sigma-Aldrich; hereafter referred to as RPMI), based on optical density at 620 nm. RPMI was selected because it supports bacterial growth without impairing AMP activity.
(§2) Bactericidal activity was assessed as described by de Breij et al.. Briefly, mid-logarithmic phase bacterial cultures were diluted to a final concentration of 1 × 10^7 colony-forming units (CFU)/mL in RPMI. Then, 10 µL was added to a final volume of 100 µL in RPMI (final concentration: 1 × 10^6 CFU/mL). Cultures were exposed to peptides either in RPMI or RPMI supplemented with 50% (v/v) human plasma (hereafter referred to as 50% plasma), obtained from four healthy volunteers after informed consent, frozen after collection, and pooled (Sanquin, Amsterdam, The Netherlands). Assays were performed in duplicate using round-bottom polypropylene microtiter plates (Costar, Arlington, VA, USA) and repeated three times. In the initial screening phase (Table 1, Table 2 and Table S1), peptide solutions of 1, 10, and 100 μM (final concentration) were tested against A. baumannii RUH875 and S. aureus JAR060131 in RPMI and in 50% plasma. After this selection process, two lead candidates, their RI variants, and reference peptides were tested with a final concentration range of 0.12 to 120 µM (two-fold dilutions) in RPMI and in 50% plasma (Table 3). The peptides were also tested against ESKAPE pathogens, with Synthetic Antimicrobial and Antibiofilm Peptide (SAAP)-148 as a reference peptide (Table 4).RPMI or 50% plasma served as no-treatment controls. After 2 and 18 h of incubation at 37 °C with shaking at 120 rpm in a humidified environment, the numbers of viable bacteria were quantified. Bactericidal activity was expressed as the lethal concentration 99.9% (LC99.9), defined as the lowest peptide concentration that killed ≥99.9% of bacteria within 2 h (LC99.9_2h) or 18 h (LC99.9_18h) compared to the initial inoculum.

[2] = system: E. coli LUH15117; type: cell-based
Method: as §1, §2

[3] = system: S. aureus JAR060131; type: cell-based
Method: as §1, §2

[4] = system: P. aeruginosa LUH15103; type: cell-based
Method: as §1, §2

[5] = system: K. pneumoniae LUH15104; type: cell-based
Method: as §1, §2

[6] = system: MDR ESKAPE pathogens; assay: Bactericidal activity (LC99.9), statements for the whole panel; type: cell-based; conditions: range over species
Method: as §1, §2

[7] = system: A. baumannii RUH875 biofilm; assay: Biofilm killing; type: cell-based, Acinetobacter baumannii; conditions: 24 h biofilm
Method: Mid-logarithmic phase cultures of A. baumannii RUH875 or S. aureus JAR060131 were diluted to 1 × 10^8 CFU/mL in RPMI supplemented with 1% glucose. A total of 100 μL of each suspension was added to flat-bottom polystyrene 96-well microplates (Costar) and incubated under static conditions at 37 °C in a humidified atmosphere for 24 h to allow biofilm formation. After 24 h, planktonic bacteria were removed, and wells were carefully washed with 100 μL PBS [60]. […] Control samples were exposed to 100 μL of PBS only.
Biofilms were treated at 37 °C for either 2 or 24 h. […] Plates were sealed and sonicated for 5 min (Elmasonic, Singen, Germany; 45 kHz) at room temperature to dislodge adherent bacteria. […] Quantitative cultures were performed by plating serial 10-fold dilutions on sheep blood agar, and results were expressed as log10 CFU per well. The lower limit of detection was three CFU. Each condition was tested in six replicates.

[8] = system: BJ human skin fibroblast cells; assay: WST-1 metabolic activity assay (cell viability); conditions: lowest concentration causing <70% metabolic activity (WST-1); BJ fibroblasts; 24 h; DMEM with 2% FBS; 0.05-60 µM
Method: BJ human skin fibroblast cells (ATCC CRL-2522; RRID: CVCL_3653; LGC Standards, Germany (September 2023)) were cultured in Dulbecco’s Modified Eagle Medium (DMEM; Gibco, Waltham, MA, USA) supplemented with 10% (v/v) foetal bovine serum (FBS; Sigma-Aldrich) and 1% (v/v) penicillin/streptomycin (pen/strep; Gibco). Cell suspensions (5 × 10^5 cells/mL) were seeded into 96-well plates (100 μL/well; Thermo Scientific, Waltham, MA, USA) and allowed to adhere for 24 h. Monolayers were then exposed to two-fold serial dilutions of GDST peptides, their RI variants, and reference peptides (final concentrations: 0.05 to 60 µM) in fresh DMEM with 2% (v/v) FBS for 24 h at 37 °C in a humidified atmosphere with 5% CO2.
Cell viability and membrane integrity were assessed using the water-soluble tetrazolium salt (WST-1; Roche, Basel, Switzerland) assay and the lactate dehydrogenase (LDH; Abcam, Cambridge, UK) assay, respectively, according to manufacturer instructions. Results were expressed as percentages of metabolic activity and LDH leakage relative to untreated control cells and the positive lysis control, respectively. The cytotoxic concentration was defined as the lowest peptide concentration causing <70% metabolic activity and >30% LDH leakage. All experiments were performed in triplicate.

CC[C@@H](C)[C@@H](NC(=O)[C@@H](CC(C)C)NC(=O)[C@@H](CCCCN)NC(=O)[C@@H](CCCCN)NC(=O)[C@H](NC(=O)[C@@H](Cc1c[nH]c2ccccc12)NC(=O)[C@@H](CCCNC(=N)N)NC(=O)[C@@H](Cc1ccccc1)NC(=O)[C@@H](CC(C)C)NC(C)=O)C(C)C)C(=O)N[C@H](CCCCN)C(=O)N[C@@H](C(=O)N[C@H](Cc1c[nH]c2ccccc12)C(=O)N[C@H](CCCNC(=N)N)C(=O)N[C@H](CCCCN)C(N)=O)C(C)C [GDST-045-RI] (HELM PEPTIDE1{[ac].[dL].[dF].[dR].[dW].[dV].[dK].[dK].[dL].[dI].[dK].[dV].[dW].[dR].[dK].[am]}$$$$V2.0; N-terminus and C-terminus assumed)
LC99.9 A. baumannii RUH875 50% Plasma 2 h ([1]; RUH875, 2 h): 1.88 µM
LC99.9 A. baumannii RUH875 50% Plasma 18 h ([1]; RUH875, 18 h): 0.94 µM
LC99.9 E. coli LUH15117 RPMI 2 h ([2]; LUH15117, 2 h): 3.75 µM
LC99.9 E. coli LUH15117 RPMI 18 h ([2]; LUH15117, 18 h): 1.88 µM
LC99.9 S. aureus JAR060131 50% Plasma 2 h ([3]; JAR060131, 2 h): 3.75 µM
LC99.9 S. aureus JAR060131 RPMI 2 h ([3]; JAR060131, 2 h): 1.88 µM
LC99.9 S. aureus JAR060131 50% Plasma 18 h ([3]; JAR060131, 18 h): 1.88 µM
LC99.9 P. aeruginosa LUH15103 50% Plasma 2 h ([4]; LUH15103, 2 h): 30 µM
LC99.9 P. aeruginosa LUH15103 RPMI 2 h ([4]; LUH15103, 2 h): 3.75 µM
LC99.9 P. aeruginosa LUH15103 50% Plasma 18 h ([4]; LUH15103, 18 h): 30 µM
LC99.9 P. aeruginosa LUH15103 RPMI 18 h ([4]; LUH15103, 18 h): 3.75 µM
LC99.9 K. pneumoniae LUH15104 50% Plasma 2 h ([5]; LUH15104, 2 h): 15 µM
LC99.9 K. pneumoniae LUH15104 RPMI 2 h ([5]; LUH15104, 2 h): 15 µM
LC99.9 K. pneumoniae LUH15104 50% Plasma 18 h ([5]; LUH15104, 18 h): 7.5 µM
LC99.9 K. pneumoniae LUH15104 RPMI 18 h ([5]; LUH15104, 18 h): 7.5 µM
Concentrations killing ESKAPE pathogens in 50% plasma within 2 h ([6]; 50% plasma, 2 h): 0.94 to 120 µM
Concentrations killing ESKAPE pathogens in 50% plasma after 18 h ([6]; 50% plasma, 18 h): 0.94 to 30 µM
Concentrations killing ESKAPE pathogens in RPMI within 2 h ([6]; RPMI, 2 h): 0.94 to 15 µM
Concentration killing ≥3 log CFU of A. baumannii biofilm within 2 h ([7]; 2 h treatment in PBS, 1.88-120 μM, vs untreated biofilm): ≥ 30 µM
Concentration giving complete eradication of A. baumannii biofilm, 24 h treatment ([7]; 24 h treatment in PBS): 120 µM
Cytotoxicity Metabolic Activity <70% [8]: 3.75 µM
